Laboratory results reported in patent US8741843B2, “Compositions and methods for inducing angiogenesis” (priority 2006, dated 2014).
Entries after “also recorded” stand apart in the source; their conditions may differ.

Tests used:
[1] = tested on: endothelial cells; assay: Inhibition of binding of biotinylated ADOPep1 to endothelial cells by motif peptides; design: species or system human; conditions: normoxia, peptides 0.01, 0.1 or 1 ng/ml, ADOPep1^Biot 2 μg/ml
Description: FIG. 23 is a graph depicting the inhibition of binding of ADOPep1^Biot (2 μg/ml) to endothelial cells by specific peptides corresponding to conserved motifs from the ADOPeps. Endothelial cells were incubated for 2 hours under normoxia conditions in the presence of increasing concentrations (0.01, 0.1 or 1 ng/ml) of peptides having the amino acid sequences corresponding to Motif A (HWRRP; SEQ ID NO:7), Motif B (HWRRA; SEQ ID NO:8), Motif C (AHLLP; SEQ ID NO:6) or non-biotinylated ADOPep1 (SEQ ID NO:2) and then were incubated for 1 hour with biotinylated ADOPep1 (2 μg/ml) and the binding of biotinylated ADOPep1 to endothelial cells was determined using HRP-streptavidin.

[2] = tested on: GRP78 in mouse ischemic hind limb; assay: GRP78-positive cells in ischemic hind limb sections; type: in vivo; conditions: 1 μg/mice, 7 to 14 days post ligation, vs PBS
Description: FIG. 21 is a bar graph depicting the mean number of GRP78-positive (GRP78+) cells per area in hind limb ischemia treated with ADOPep1 as a function of the days post induction of ischemia. Mice were subjected to hind limb ligation (the ischemic model) and after one day the mice were injected with either 1 μg/mice of ADOPep1, or 50 μl of PBS as control. The number of GRP78 positive cells was determined in histological sections prepared from ligated hind limbs (injected with ADOPep1 or PBS) of mice sacrificed at 7, 14 or 21 days post ischemia induction or normal untreated (non-ischemic) hind limbs.

[3] = tested on: endothelial cells; assay: CoCl2-induced apoptosis of endothelial cells (Annexin-FITC/PI FACS); type: cell-based, human; conditions: normoxia, 100 micromolar per 100,000 cells CoCl2, 10 ng/ml peptide 24 hours
Description: FIGS. 33a-f are representative FACS analyses depicting a specific inhibition of hypoxia-induced apoptosis of endothelial cells by ADOPep1. Endothelial cells in Petri dishes were incubated for 24 hours with 5% FCS in supplement-free endothelial cell growth medium under normoxia (FIGS. 33a and d), exposed to 24 hours hypoxia (Figures c and f) or incubated under normoxia with 100 micromolar per 100,000 cells CoCl2 (FIGS. 33b and e), in the absence (FIGS. 33a-c) or presence (FIGS. 33d-f) of 10 ng/ml Adopep1 peptide (for 24 hours). Cells were trypsinized and immediately re-suspended in PBS with 5% FCS and 0.1% Na-azide. Samples containing 100,000 cells were tested for apoptosis using the Annexin-FITC (X axis) and propidium iodide (Y axis) kit (Bender Medsystems, Vienna, Austria), according to manufacturer's instructions. Results were analyzed by FACScan (Beckton Dickinson).
FIG. 34 is a histogram depicting the FACS results of the experiments described in FIGS. 33a-f. Data represents average±SD of 2 experiments.

Row | Substance | inhibition of the binding of ADOPep1^Biot to endothelial cells [1] | mean number of GRP78 positive cells [2] | mean number of GRP78 positive cells ([2]; listed as Adopep1) | effect on CoCl2 induced apoptosis [3] | effect on CoCl2 induced apoptosis ([3]; listed as AdoPep1)
1 | HWRRP [Motif A, 5 amino acid motif peptide] | significant inhibition |  |  |  | 
2 | HWRRAHLLPRLP [ADOPep1, ADAM15 derived peptide, amino acids 286-297 of the metalloprotease domain] |  | significantly increased | more significant increase in mean number of GRP78 positive cells | no effect on apoptosis induced by CoCl2; also recorded: not the CoCl2 induced apoptosis | did not inhibit apoptosis of endothelial cells exposed to the apoptotic inducer Cobalt-Chloride
